US20200045954A1, “NOVEL COMPOSITION FOR ORGAN PRESERVATION” (priority 2018, published 2020)
Non-standard residues stand in square brackets, D forms with d. No end group written: not given here.

What was measured:
[1] = system: isolated perfused rat hearts; test: Cardiac function of isolated perfused rat hearts (modified Langendorff) subjected to global I(30 min)/R(45 min); settings: for blocking of the cardio-protective effects of tri-peptide: opioid antagonist 5 μM given with tri-peptide 50 μM
[2] = system: isolated perfused rat hearts; test: Infarct size by TTC staining of isolated perfused rat hearts after I(30 min)/R(45 min)
[3] = Ventilator induced diaphragmatic dysfunction
[4] = compared to untreated control I/R hearts, tri-peptide 50 μM
[5] = final value, 45 min reperfusion
[6] = initial (baseline) value, mean ± S.E.M.

| Compound | blocking of the cardio-protective effects of tri-peptide [1] | post-reperfused cardiac function [1, 4] | Final +dP/dtmax [1, 5] [mmHg/s] | Final Coronary How [1, 5] [mL/min] | Final Heart Rate [1, 5] [BPM] | Final LVEDP [1, 5] [mmHg] | Final LVESP [1, 5] [mmHg] | Final −dP/dtmin [1, 5] [mmHg/s] | Final LVDP ([1]; final value, 45 min reperfusion, LVDP=LVESP−LVEDP) [mmHg] | Initial +dP/dtmax ([1]; initial (baseline) value) [mmHg/s] | Initial Coronary Flow ([1]; initial (baseline) value) [mL/min] | Initial Heart Rate ([1]; initial (baseline) value) [BPM] | Initial LVDP ([1]; initial (baseline) value, LVDP=LVESP−LVEDP) [mmHg] | Initial LVEDP [1, 6] [mmHg] | Initial LVESP [1, 6] [mmHg] | infarct size ([2]; TTC staining after I(30 min)/R(45 min)) [%] | infarct size [2, 4] | ventilator induced diaphragmatic dysfunction [3] |
| --- | --- | --- | --- | --- | --- | --- | --- | --- | --- | --- | --- | --- | --- | --- | --- | --- | --- | --- |
| Oc1ccc2c3c1O[C@H]1c4[nH]c5c(c4C[C@@]4(O)[C@@H](C2)N(CC2CC2)CC[C@]314)C[C@@]1(O)[C@H]2Cc3ccc(O)c4c3[C@@]1(CCN2CC1CC1)[C@H]5O4 [BNI, nor-Binaltorphimine, reference compound] | blocked | – | – | – | – | – | – | – | – | – | – | – | – | – | – | – | – | – |
| Oc1ccc2c3c1O[C@H]1c4[nH]c5ccccc5c4C[C@@]4(O)[C@@H](C2)N(CC2CC2)CC[C@]314 [NALD, naltrindole, reference compound] | not | – | – | – | – | – | – | – | – | – | – | – | – | – | – | – | – | – |
| Phe-[dR]-Phe-NH2 [tri-peptide] | – | significantly restored | 1126.8 ± 177.2 | 9.6 ± 1.5 | 276.3 ± 12.6 | 50.1 ± 7.4 | 105.6 ± 6.1 | 965.5 ± 112.1 | 55.5 ± 6.0 | 2376.7 ± 75.1 | 17.7 ± 0.9 | 287.8 ± 8.1 | 94.2 ± 2.7 | 6.7 ± 0.8 | 100.9 ± 3.1 | 26 ± 1 | reduced infarct size | attenuate |
